Results taken from paper PMC11873639 (Acta Pharmaceutica Sinica. B, 2024).
Blank lines part the entries; values can stand above or below the compound they belong to.

What was measured:
[1] = test system: LAD2 cells; test: β-hexosaminidase release induced by C48/80 in LAD2 cells; assay type: cell-based, Human; details: for IC50: Homo sapiens, LAD2, read-out: Experimental pIC50 (converted); for antiallergic activity (β-hexosaminidase release inhibition): LAD2 cells, 10 μmol/L
[2] = test system: mice; test: body temperature after C48/80; assay type: in vivo; details: 10 mg/kg
[3] = test system: LAD2 cells; test: histamine release in vitro induced by C48/80; assay type: cell-based, Human; details: 1 to 10 μmol/L
[4] = test system: mice; test: serum histamine release in vivo after C48/80; details: mice, 1, 5 and 10 mg/kg
[5] = test system: mice; test: paw swell and Evans blue extravasation induced by C48/80; assay type: in vivo; details: gavage, 1, 5 and 10 mg/kg
[6] = test system: LAD2 cells; test: LAD2 cell viability; assay type: cell-based, Human; details: 10 μmol/L
[7] = test system: MRGPRX2-HEK293 cells; test: intracellular Ca2+ mobilization assay; assay type: cell-based; details: MRGPRX2-HEK293 cells, 1, 5, 10 μmol/L
[8] = test system: C57BL/6 mice; test: OVA-induced antigen-induced pulmonary inflammation; assay type: in vivo; details: AIPI mice
[9] = test system: LAD2 cells; test: IL-8 release induced by C48/80; assay type: cell-based, Human; details: LAD2 cells, 1, 5 and 10 μmol/L
[10] = test system: mice; test: skin toluidine blue staining; assay type: in vivo; details: 10 mg/kg, C48/80
[11] = target: T1, MRGPRX2 (Homo sapiens, UniProt Q96LB1); details: cited from earlier work
T1 sequence (Q96LB1 1-330): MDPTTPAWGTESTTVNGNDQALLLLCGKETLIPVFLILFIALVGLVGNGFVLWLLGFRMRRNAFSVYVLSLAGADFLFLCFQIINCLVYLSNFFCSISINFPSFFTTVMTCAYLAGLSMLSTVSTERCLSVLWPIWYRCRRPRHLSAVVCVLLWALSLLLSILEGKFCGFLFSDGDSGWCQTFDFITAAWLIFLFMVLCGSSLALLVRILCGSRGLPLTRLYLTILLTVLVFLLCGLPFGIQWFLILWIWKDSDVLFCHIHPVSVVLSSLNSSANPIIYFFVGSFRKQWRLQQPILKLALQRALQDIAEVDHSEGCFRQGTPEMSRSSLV

IC50 [1]: 832 nM
Compound: O=C(Nc1ccc([N+](=O)[O-])cc1)Nc1cccc(C(F)(F)F)c1 [Compound B-3023]

IC50 [1]: 170 nM
Compound: O=C(Nc1ccc([N+](=O)[O-])cc1)Nc1ccc(C(F)(F)F)cc1 [Compound B-1023]
body temperature drop induced by C48/80 [2]: significantly attenuated the body temperature drop
histamine release from LAD2 cells induced by C48/80 [3]: inhibited the histamine release
serum histamine release [4]: reduced in a dose-dependent manner
hindpaw swelling and Evans blue exudation rates [5]: decreased in a dose-dependent manner
inhibition of β-hexosaminidase release ([1]; LAD2 cells, 1, 5 and 10 μmol/L, C48/80): the most potential antiallergic ability
cytotoxicity on LAD2 cells [6]: nontoxic
C48/80-induced intracellular calcium mobilization [7]: dose-dependently reduced
Th2 cytokine (IL-5 and IL-13) release in BALF [8]: obviously inhibited
airway hyperresponsiveness (AHR) triggered by Mch [8]: suppressed the AHR
number of bronchoalveolar lavage fluid (BALF) cells [8]: inhibited
lung lesions (HE, PAS, MASSON staining) ([8]; 5 mg/kg oral): exerted anti-AIPI effects
lung lesions (HE, PAS, MASSON staining) ([8]; 10 mg/kg oral): significantly attenuated the pathological changes, with a better effect than that of Dex
serum IgE release ([8]; 10 mg/kg oral): only partially weakened IgE release
IL-8 release induced by C48/80 [9]: reduced the IL-8 release
local skin mast cell deformation and degranulation (toluidine blue) [10]: reduced mast cell deformation and degranulation

IC50 [1]: 363 nM
Compound: O=C(Nc1ccc(C(F)(F)F)cc1)Nc1cccc([N+](=O)[O-])c1 [Compound B-2023]

IC50 [1]: 288 nM
Compound: O=C(Nc1cccc([N+](=O)[O-])c1)Nc1cccc(C(F)(F)F)c1 [Compound B-4023]

The next lines start with the compound.

Compound: O=C(Nc1ccc(C(F)(F)F)cc1)Nc1ccc(S(=O)(=O)O)cc1 [Compound B-6023]
antiallergic activity (β-hexosaminidase release inhibition) ([1]; C48/80): inactivity

Compound: C[C@H]1O[C@@H](O[C@H]2CC[C@@]3(C)[C@@H](CC[C@]4(C)[C@@H]3C=C[C@]35OC[C@@]6(CCC(C)(C)C[C@H]63)[C@@H](O)C[C@]54C)[C@]2(C)CO)[C@H](O)[C@@H](O[C@@H]2O[C@H](CO)[C@@H](O)[C@H](O)[C@H]2O)[C@H]1O [saikosaponin A]
IC50 [11]: 640 µM

Compound: O=C(Nc1ccc(C(F)(F)F)cc1)Nc1cccc(Br)c1 [Compound A-2023, 1-(3-bromophenyl)-3-(4-(trifluoromethyl)phenyl) urea]
IC50 [1]: 1230 nM
cytotoxicity on LAD2 cells [6]: much higher toxicity

Compound: O=C(Nc1ccccc1)Nc1cccc(Br)c1 [Compound A-5023]
IC50 [1]: 21900 nM
antiallergic activity (β-hexosaminidase release inhibition) ([1]; C48/80): no antiallergic activity
cytotoxicity on LAD2 cells [6]: no antiallergic activity or cytotoxicity

Compound: O=C(Nc1ccccc1)Nc1ccc(C(F)(F)F)cc1 [Compound A-3023]
IC50 [1]: 8320 nM
antiallergic activity (β-hexosaminidase release inhibition) ([1]; C48/80): much more potent than A-4023
cytotoxicity on LAD2 cells [6]: attenuated cytotoxicity

Compound: CC(C)=CCOc1c2occc2cc2ccc(=O)oc12 [imperatorin]
IC50 [11]: 50 µM

Compound: O=C(Nc1ccccc1)Nc1cc(Br)cc(C(F)(F)F)c1 [Compound A-1023, 1-(3-bromo-5-(trifluoromethyl)phenyl)-3-phenylurea]
IC50 [1]: 7940 nM

Compound: C[C@@H]1C[C@H]2[C@@H]3CCC4=CC(=O)C=C[C@]4(C)[C@@]3(F)[C@@H](O)C[C@]2(C)[C@@]1(O)C(=O)CO [Dexamethasone, reference compound]
airway hyperresponsiveness (AHR) triggered by Mch [8]: suppressed the AHR
lung lesions (HE, PAS, MASSON staining) ([8]; dose not given): improved lung lesions
serum IgE release ([8]; dose not given): almost completely inhibited the excessive release of IgE

Compound: O=C(Nc1ccccc1)Nc1cccc(C(F)(F)F)c1 [Compound A-4023]
cytotoxicity on LAD2 cells [6]: attenuated cytotoxicity
